Here are results for one compound from patent US7060405B2, “Naphthoquinone derivative and electrophotographic photoreceptor containing the same” (Samsung Electronics Co., Ltd., priority 2003, dated 2006).

This series in a line: solubility in an organic solvent. To be noted: compared to a conventional electron-transporting material. In kind it is physicochemical. The method, then:
In addition, two properties of the naphthoquinone derivative of Formula 2 that was used in Example 1 was measured: solubility in an organic solvent and compatibility with a binder resin.

Regarding `COc1ccc(C(=O)C2=C(c3ccccc3)C(=O)c3ccccc3C2=O)cc1` [Formula 2], the “solubility in an organic solvent” value is “improved”.
